From patent US4435404A, “Carbostyril derivatives” (priority 1980, dated 1984)

Legend:
[1] = system: Gold blatt type renoprival hypertension rats (RHR); test: Hypotensive effect, Tail-cuff method, RHR; format: in vivo, rat; conditions: 30 mg/kg oral, mean value ± standard deviation
Protocol: (§1) Hypotensive effect of the compounds were measured by determining the maximum blood pressure of the test animals according to a procedure of Tail-cuff method.
(§2) Test animals used were the following two types.
(1) Gold blatt type renoprival hypertension rats (RHR)
Wistar strain male rats having, 160-180 g of body weight, were anesthetized with ether and the left-side renal artery was pluged with a silver clip having 0.2 mm inside diameter, while the right-side renal artery was kept as it was without operation. Four (4) weeks after the operation, rats having the maximum blood pressure over 150 mmHg were selected and used as test animals which were abstained from food for overnight.
(§3) Each of compounds to be tested were administered orally and the blood pressure was measured before the administration and 1, 2, 4, 6 and 8 hours after the administration. The blood pressure was measured by using Recorder (Rectihoriz type 8S, San-ei Instrument) and Electrosthygmomanometer PE-300 (Macro Bio-systems, Houston, Tex.).

[2] = system: Deoxycorticosteroneacetate (DOCA)/saline hypertension rats (DHR); test: Hypotensive effect, Tail-cuff method, DHR; format: in vivo, rat; conditions: 30 mg/kg oral, mean value ± standard deviation
Protocol: as §1, §2
(2) Deoxycorticosteroneacetate (DOCA)/saline hypertension rats (DHR)
Wistar strain male rats having 150-170 g of body weight, were anesthetized with ether and the left-side kidney was enucleated. One (1) week after the operation, 10 mg/kg of DOCA was injected subcutaneously once a week and 1% NaCl aqueous solution was given as drinking water. Five (5) weeks after the operation, rats having the maximum blood pressure over 150 mmHg were selected and used as test animals which were abstained from food for overnight.
as §3

[3] = system: arterial papillary muscle; test: Positive inotropic effect, blood-perfused arterial papillary muscle; parameters: species or system dog; conditions: into septal artery
Protocol: Positive inotropic effects of the novel carbostyril derivatives of the present invention were tested according to a method described by M. Endoh and K. Hashimoto, in "American Journal of Physiology", Vol. 218, No. 5, May, 1970, pages 1459-1463 as follows:
Adult bastard dogs of both sexes, weighing 8-12 kg, were anesthetized with pentobarbital-Na at a rate of 30 mg/kg by intraveneous administration. After another intraveneous administration of sodium heparin, 1,000 μ/kg, the test dog was sacrificed by blood letting. The heart of the dog was excised and immediately plunged into Locke's solution, then the arterial papillary muscle was excised out with interventicular septum. The septal artery was carefully isolated and cannulated with a polyethylene cannula and was ligated with thread. Septal arteries those of connected to other than the arterial papillary muscle were ligated with thread. Next, the donor adult bastard dogs, weighing 18-27 kg, were anesthetized with pentabarbital-Na (30 mg/kg, intraveneous injection), and further treated with intravenous administration of sodium heparin (1,000 μ/kg). The arterial papillary muscle was perfused through the septal artery being cannulated with the polyethylene cannula with the blood conducted from the carotid artery of the donor dog by aid of Peristaric pump. The perfusion pressure was maintained at 100 mmHg constantly. Then the muscle was electrically stimulated by an electronic stimulator through bipolar electrodes in contact with the interventicular septum. The strength of stimulation was 2 X (the minimum value for appearing the action), frequency 2 Hz, pulse duration 2 msec.
The isometric contraction generated was measured through a force-displacement transducer. The amount of blood flow in the coronary arteries was measured by determining the amount of the blood flow conducted to the septal artery by electromagnetic flow meter. All the data were recorded on an ink-writing recorder.
A solution containing a compound to be tested was injected into the septal artery through the rubber tube connected close to the shunk of the polyethylene cannula, in an amount of 10-30 μl.
The results obtained is shown in Table 4, in which the increasement (%) of contraction is indicated as the ratio of the contractions before and after the administration (injection) of the solution containing the test compound.

[4] = system: bastard dog; test: Increasing effect of cerebral blood flow; format: in vivo; conditions: profunda femoris vein
Protocol: Thus, a bastard dog (male, 12-20 kg of body weight) was fixed in a prone (position) and was anesthetized with 20 mg/kg of pentobarbital sodium and made forced breathing to kept the frequency of respiration at 20 times/minutes. Then, the skull was bared and the surface bone was removed to expose the venous sinus by using grinder and the venous blood was took out from the venas which was cannulizated. The amount of venous blood flow was measured by using an electromagnetic blood flow meter and next measured by using drop-counter by measuring the number of drops of blood per 10 seconds.
The increasing effect of cerebral blood flow was calculated by comparing the number of blood drops in 30 seconds at the peak of increasement shown before and after the administration of compound to be tested. The each of compounds to be tested was dissolved in dimethylformamide and diluted with physiological saline solution and administered through a cannule being inserted into the profunda femoris vein.

Row | Substance | Maximum blood pressure after the administration (difference) ([1]; 1 hour) | Maximum blood pressure after the administration (difference) ([1]; 2 hours) | Maximum blood pressure after the administration (difference) ([1]; 4 hours) | Maximum blood pressure after the administration (difference) ([2]; 1 hour) | Maximum blood pressure after the administration (difference) ([2]; 2 hours) | Maximum blood pressure after the administration (difference) ([2]; 4 hours) | Maximum blood pressure after the administration (difference) ([2]; 6 hours) | Increasing of inotropic ([3]; dosage 10 n mol) | Increasing of inotropic ([3]; dosage 30 n mol) | Increasing of inotropic ([3]; dosage 100 n mol) | Increasing effect of cerebral blood flow ([4]; dosage 100 μg/kg) | Maximum blood pressure after the administration (difference) ([1]; 6 hours) | Maximum blood pressure after the administration (difference) ([1]; 8 hours) | Increasing effect of cerebral blood flow ([4]; dosage 300 μg/kg)
1 | 6-{3-[N-(2-hydroxyethyl)-N-cyclohexylaminocarbonyl]propoxy}-3,4-dihydrocarbostyril [Example 2] | -4.8 ± 6.4 mmHg | -4.8 ± 3.7 mmHg | -3.2 ± 4.0 mmHg | -63.0 ± 9.1 mmHg | -30.4 ± 9.9 mmHg | -42.8 ± 5.5 mmHg | -24.1 ± 6.8 mmHg | 38.9% | 94.3% |  |  |  |  | 
2 | 6-{4-[N-(2-Hydroxypropyl)-N-cyclohexylaminocarbonyl]butoxy}-3,4-dihydrocarbostyril [Example 8] |  |  |  |  |  |  |  |  | 38.7% | 89.4% |  |  |  | 
3 | 7-{3-[N-(3-Hydroxypropyl)-N-cyclohexylaminocarbonyl]propoxy}-3,4-dihydrocarbostyril [Example 17] | -25.5 ± 7.0 mmHg | -23.3 ± 9.6 mmHg | -27.0 ± 14.1 mmHg | -2.5 ± 4.0 mmHg | -8.7 ± 3.3 mmHg | -9.3 ± 8.6 mmHg |  |  |  |  | 34.4% | -33.7 ± 10.2 mmHg | -29.8 ± 9.7 mmHg | 
4 | 6-{4-[N-(2-Hydroxyethyl)-N-cyclohexylaminocarbonyl]butoxy}-3,4-dihydrocarbostyril [Example 9] | -10.1 ± 6.2 mmHg | -11.6 ± 9.6 mmHg | -14.2 ± 5.0 mmHg | -51.2 ± 14.0 mmHg | -44.6 ± 14.6 mmHg | -42.4 ± 13.9 mmHg | -34.0 ± 10.2 mmHg |  |  |  | 85.3% | -8.0 ± 2.6 mmHg |  | 
5 | 6-{3-[N-(2-Hydroxybutyl)-N-cyclohexylaminocarbonyl]propoxy}-3,4-dihydrocarbostyril [Example 4] |  |  |  |  |  |  |  | 10% |  | 62.5% |  |  |  | 64.2%
6 | 6-{5-[N-(2-Hydroxybutyl)-N-cyclohexylaminocarbonyl]pentyloxy}-3,4-dihydrocarbostyril [Example 16] |  |  |  | -20.2 ± 8.0 mmHg | -21.2 ± 9.7 mmHg | -16.2 ± 6.8 mmHg | -6.5 ± 8.5 mmHg |  |  |  | 63.2% |  |  | 
